This passage reports EC50 results from US20210115104A1, “AMYLIN ANALOGUES” (Zealand Pharma A/S, priority 2015, published 2021).

*1 amine or outer side, *2 acyl side, *3 side chain or, on linkers, in order; H or OH if unused. Where a SMILES comes first, the peptide text is derived from it. Bridges are numbered along the chain shown (N, C = ends). [ ]: non-standard residue; d: D form. The star is where a group is joined. C20 diacid = O=C(O)CCCCCCCCCCCCCCCCCCC(=O)*; γGlu = O=C(O)[C@H](CCC(=O)[*:2])N[*:1]; Hyp = O=C(O)[C@@H]1C[C@@H](O)CN1; NMeI = CC[C@H](C)[C@H](NC)C(=O)O; Sar = CNCC(=O)O

Assay [1] deals with T1, human calcitonin receptor (hCTR2) (Homo sapiens, UniProt P30988).
T1 construct: expressed in transfected cells
T1 sequence (P30988 25-474): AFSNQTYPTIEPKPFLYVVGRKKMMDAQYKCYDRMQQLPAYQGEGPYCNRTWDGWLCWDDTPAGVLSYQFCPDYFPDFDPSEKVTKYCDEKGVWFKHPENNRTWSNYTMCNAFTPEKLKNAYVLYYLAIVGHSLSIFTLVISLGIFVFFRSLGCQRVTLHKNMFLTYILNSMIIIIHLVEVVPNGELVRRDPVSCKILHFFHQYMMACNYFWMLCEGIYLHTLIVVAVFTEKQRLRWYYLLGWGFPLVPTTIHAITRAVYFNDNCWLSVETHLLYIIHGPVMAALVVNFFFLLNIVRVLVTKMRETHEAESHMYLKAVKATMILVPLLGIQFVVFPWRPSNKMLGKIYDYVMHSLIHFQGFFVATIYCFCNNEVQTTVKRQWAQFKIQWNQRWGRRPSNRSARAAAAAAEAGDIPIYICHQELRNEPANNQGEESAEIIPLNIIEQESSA
The assay can be described thus: hCTR2 cAMP assay (AlphaScreen) in COS7 cells. Format: cell-based. The following applies: cAMP induction, COS7 cells expressing hCTR2; Table 1; read-out: hCTR2 EC50. An outline of the steps: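 Stable hCTR2 clone in RAMP-naïve COS7 cells stimulated 15 min at 37 °C with increasing peptide concentrations in Tyrode buffer pH 7.4 containing IBMX and 0.1% casein. cAMP in lysates measured by AlphaScreen; EC50 from 4-parameter logistic fit.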
On the technique in general: cAMP levels reflect the balance of adenylyl cyclase and phosphodiesterase activity.

Assay [2] deals with T2, human amylin receptor 3 (hAMYR3), hCTR2 co-expressed with hRAMP3 (Homo sapiens, UniProt O60896+P30988).
T2 construct: expressed in transfected cells
T2 sequence (P30988 25-474): T1 sequence (P30988 25-474)
T2 sequence (O60896 24-148 partner): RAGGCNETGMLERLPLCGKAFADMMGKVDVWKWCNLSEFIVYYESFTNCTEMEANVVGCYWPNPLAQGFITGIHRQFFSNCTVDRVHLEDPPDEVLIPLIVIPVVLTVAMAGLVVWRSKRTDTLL
The assay can be described thus: hAMYR3 cAMP assay (AlphaScreen) in COS7 cells. It counts as cell-based. The following applies: cAMP induction, COS7 cells expressing hAMYR3; Table 1; read-out: hAMYR3 EC50. An outline of the steps: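 Stable COS7 clone co-expressing hCTR2 and hRAMP3 was exposed to increasing peptide concentrations in Tyrode buffer (pH 7.4) with 100 µM IBMX and 0.1% casein for 15 min at 37 °C. Lysate cAMP was measured by AlphaScreen; EC50 came from 4-parameter logistic fitting.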

The EC50 is the midpoint of the concentration-response curve.

As to `CC[C@H](C)[C@@H](C(=O)N[C@@H](CC(C)C)C(=O)N[C@@H](CO)C(=O)N[C@@H](CO)C(=O)N[C@H](C(=O)N[C@@H](CCC(=O)O)C(=O)N[C@H](C(=O)NCC(=O)N[C@@H](CO)C(=O)N[C@@H](CC(N)=O)C(=O)N[C@H](C(=O)N1C[C@H](O)C[C@H]1C(N)=O)[C@@H](C)O)C(C)C)[C@@H](C)O)N(C)C(=O)[C@H](C)NC(=O)CN(C)C(=O)[C@H](Cc1ccccc1)NC(=O)[C@H](CO)NC(=O)[C@H](CO)NC(=O)[C@H](CCCNC(=N)N)NC(=O)[C@H](CC(N)=O)NC(=O)[C@H](CC(C)C)NC(=O)[C@H](Cc1ccccc1)NC(=O)[C@H](Cc1c[nH]cn1)NC(=O)[C@H](C)NC(=O)[C@H](CC(C)C)NC(=O)[C@H](CCCNC(=N)N)NC(=O)[C@H](CCC(=O)O)NC(=O)[C@@H](NC(=O)[C@H](C)NC(=O)[C@@H]1CSSC[C@H](NC(=O)[C@H](CCCNC(=N)N)NC(=O)CC[C@H](NC(=O)CCCCCCCCCCCCCCCCCCC(=O)O)C(=O)O)C(=O)NCC(=O)N[C@@H]([C@@H](C)O)C(=O)N[C@@H](C)C(=O)N[C@@H]([C@@H](C)O)C(=O)N1)[C@@H](C)O` [Compound 6, [19CD]-isoGlu-R-C( )-GTAT-C( )-ATERLAHFLNRSSF-Gly(Me)-A-Ile(Me)-LSSTEVGSNT-Hyp-NH2] ({C20 diacid-γGlu}-RCGTATCATERLAHFLNRSSF[Sar]A[NMeI]LSSTEVGSNT[Hyp]-NH2; disulfide 2-7), the EC50 in assay [1] was found to be 0.077 nM; in assay [2] it was 0.22 nM.

`CC[C@H](C)[C@@H](C(=O)N[C@@H](CC(C)C)C(=O)N[C@@H](CO)C(=O)N[C@@H](CO)C(=O)N[C@H](C(=O)N[C@@H](CCC(=O)O)C(=O)N[C@H](C(=O)NCC(=O)N[C@@H](CO)C(=O)N[C@@H](CC(N)=O)C(=O)N[C@H](C(=O)N1CCC[C@H]1C(N)=O)[C@@H](C)O)C(C)C)[C@@H](C)O)N(C)C(=O)[C@H](C)NC(=O)CN(C)C(=O)[C@H](Cc1ccccc1)NC(=O)[C@H](CO)NC(=O)[C@H](CO)NC(=O)[C@H](CCCNC(=N)N)NC(=O)[C@H](Cc1c[nH]cn1)NC(=O)[C@H](CC(C)C)NC(=O)[C@H](Cc1ccccc1)NC(=O)[C@H](Cc1c[nH]cn1)NC(=O)[C@H](C)NC(=O)[C@H](CC(C)C)NC(=O)[C@H](CCCNC(=N)N)NC(=O)[C@H](CCC(=O)O)NC(=O)[C@@H](NC(=O)[C@H](C)NC(=O)[C@@H]1CSSC[C@H](NC(=O)[C@H](CCCNC(=N)N)NC(=O)CC[C@H](NC(=O)CCCCCCCCCCCCCCCCCCC(=O)O)C(=O)O)C(=O)NCC(=O)N[C@@H]([C@@H](C)O)C(=O)N[C@@H](C)C(=O)N[C@@H]([C@@H](C)O)C(=O)N1)[C@@H](C)O` [Compound 15, [19CD]-isoGlu-R-C( )-GTAT-C( )-ATERLAHFLHRSSF-Gly(Me)-A-Ile(Me)-LSSTEVGSNTP-NH2] ({C20 diacid-γGlu}-RCGTATCATERLAHFLHRSSF[Sar]A[NMeI]LSSTEVGSNTP-NH2; disulfide 2-7): the figures for the EC50 in assay [1] and in assay [2] were 0.044 nM and 0.079 nM, respectively.

Turning to `CC[C@H](C)[C@@H](C(=O)N[C@@H](CC(C)C)C(=O)N[C@@H](CO)C(=O)N[C@@H](CO)C(=O)N[C@H](C(=O)N[C@@H](CCC(=O)O)C(=O)N[C@H](C(=O)NCC(=O)N[C@@H](CO)C(=O)N[C@@H](CO)C(=O)N[C@H](C(=O)N1C[C@H](O)C[C@H]1C(N)=O)[C@@H](C)O)C(C)C)[C@@H](C)O)N(C)C(=O)[C@H](C)NC(=O)CN(C)C(=O)[C@H](Cc1ccccc1)NC(=O)[C@H](CO)NC(=O)[C@H](CO)NC(=O)[C@H](CCCNC(=N)N)NC(=O)[C@H](CCC(N)=O)NC(=O)[C@H](CC(C)C)NC(=O)[C@H](Cc1ccccc1)NC(=O)[C@H](Cc1c[nH]cn1)NC(=O)[C@H](C)NC(=O)[C@H](CC(C)C)NC(=O)[C@H](CCCNC(=N)N)NC(=O)[C@H](CCC(=O)O)NC(=O)[C@@H](NC(=O)[C@H](C)NC(=O)[C@@H]1CSSC[C@H](NC(=O)[C@H](CCCNC(=N)N)NC(=O)CC[C@H](NC(=O)CCCCCCCCCCCCCCCCCCC(=O)O)C(=O)O)C(=O)NCC(=O)N[C@@H]([C@@H](C)O)C(=O)N[C@@H](C)C(=O)N[C@@H]([C@@H](C)O)C(=O)N1)[C@@H](C)O` [Compound 28, [19CD]-isoGlu-R-C( )-GTAT-C( )-ATERLAHFLQRSSF-Gly(Me)-A-Ile(Me)-LSSTEVGSST-Hyp-NH2] ({C20 diacid-γGlu}-RCGTATCATERLAHFLQRSSF[Sar]A[NMeI]LSSTEVGSST[Hyp]-NH2; disulfide 2-7), the EC50 in assay [1] worked out at 0.11 nM; in assay [2], 0.13 nM.

`CC[C@H](C)[C@@H](C(=O)N[C@@H](CC(C)C)C(=O)N[C@@H](CO)C(=O)N[C@@H](CO)C(=O)N[C@H](C(=O)N[C@@H](CCC(=O)O)C(=O)N[C@H](C(=O)NCC(=O)N[C@@H](CO)C(=O)N[C@@H](CO)C(=O)N[C@H](C(=O)N1CCC[C@H]1C(N)=O)[C@@H](C)O)C(C)C)[C@@H](C)O)N(C)C(=O)[C@H](C)NC(=O)CN(C)C(=O)[C@H](Cc1ccccc1)NC(=O)[C@H](CO)NC(=O)[C@H](CO)NC(=O)[C@H](CCCNC(=N)N)NC(=O)[C@H](CCC(N)=O)NC(=O)[C@H](CC(C)C)NC(=O)[C@H](Cc1ccccc1)NC(=O)[C@H](Cc1c[nH]cn1)NC(=O)[C@H](C)NC(=O)[C@H](CC(C)C)NC(=O)[C@H](CCCNC(=N)N)NC(=O)[C@H](CCC(=O)O)NC(=O)[C@@H](NC(=O)[C@H](C)NC(=O)[C@@H]1CSSC[C@H](NC(=O)[C@H](CCCNC(=N)N)NC(=O)CC[C@H](NC(=O)CCCCCCCCCCCCCCCCCCC(=O)O)C(=O)O)C(=O)NCC(=O)N[C@@H]([C@@H](C)O)C(=O)N[C@@H](C)C(=O)N[C@@H]([C@@H](C)O)C(=O)N1)[C@@H](C)O` [Compound 34, [19CD]-isoGlu-R-C( )-GTAT-C( )-ATERLAHFLQRSSF-Gly(Me)-A-Ile(Me)-LSSTEVGSSTP-NH2] ({C20 diacid-γGlu}-RCGTATCATERLAHFLQRSSF[Sar]A[NMeI]LSSTEVGSSTP-NH2; disulfide 2-7): the EC50 in assay [1] was 0.09 nM; in assay [2] it was 0.12 nM.

Take `CC[C@H](C)[C@@H](C(=O)N[C@@H](CC(C)C)C(=O)N[C@@H](CO)C(=O)N[C@@H](CO)C(=O)N[C@H](C(=O)N[C@@H](CCC(=O)O)C(=O)N[C@H](C(=O)NCC(=O)N[C@@H](CO)C(=O)N[C@@H](CO)C(=O)N[C@H](C(=O)N1CCC[C@H]1C(N)=O)[C@@H](C)O)C(C)C)[C@@H](C)O)N(C)C(=O)[C@H](C)NC(=O)CN(C)C(=O)[C@H](Cc1ccccc1)NC(=O)[C@H](CO)NC(=O)[C@H](CO)NC(=O)[C@H](CCCNC(=N)N)NC(=O)[C@H](CCC(=O)O)NC(=O)[C@H](CC(C)C)NC(=O)[C@H](Cc1ccccc1)NC(=O)[C@H](Cc1c[nH]cn1)NC(=O)[C@H](C)NC(=O)[C@H](CC(C)C)NC(=O)[C@H](CCCNC(=N)N)NC(=O)[C@H](CCC(=O)O)NC(=O)[C@@H](NC(=O)[C@H](C)NC(=O)[C@@H]1CSSC[C@H](NC(=O)[C@H](CCCNC(=N)N)NC(=O)CC[C@H](NC(=O)CCCCCCCCCCCCCCCCCCC(=O)O)C(=O)O)C(=O)NCC(=O)N[C@@H]([C@@H](C)O)C(=O)N[C@@H](C)C(=O)N[C@@H]([C@@H](C)O)C(=O)N1)[C@@H](C)O` [Compound 36, [19CD]-isoGlu-R-C( )-GTAT-C( )-ATERLAHFLERSSF-Gly(Me)-A-Ile(Me)-LSSTEVGSSTP-NH2] ({C20 diacid-γGlu}-RCGTATCATERLAHFLERSSF[Sar]A[NMeI]LSSTEVGSSTP-NH2; disulfide 2-7): the figures for the concentration for a half-maximal effect (EC50) in assay [1] and in assay [2] were 0.21 nM and 0.36 nM, respectively.
